{
  "source": "patent US20140301980A1",
  "about": "“METHODS FOR THE TREATMENT OF PSORIATIC ARTHRITIS USING APREMILAST” (CELGENE CORPORATION, priority 2013, published 2014)",
  "key": {"[1]": {"tested_on": "adult patients with active PsA", "assay": "Phase III clinical study PALACE 1 in active psoriatic arthritis", "assay_type": "in vivo, human", "details": "for Patients achieving remission, DAS28(CRP) less than 2.6: N=168; for Physician's global assessment of disease activity, % Change (percent improvement) / Subject's assessment of pain, % Change (percent improvement) / Subject's global assessment of disease activity, % Change (percent improvement): VAS; for Number of swollen joints, % Change (percent improvement): scale 0-76; for Number of tender joints, % Change (percent improvement): scale 0-78; for Proportion of patients with ACR 20 response / Proportion of patients with ACR 50 response / Proportion of patients with ACR 70 response: N = 168", "description": "(§1) The safety and efficacy of apremilast was evaluated in three multi-center, randomized, double-blind, placebo-controlled trials (Studies PALACE 1, PALACE 2, and PALACE 3) of similar design. A total of 1493 adult patients with active PsA (≧3 swollen joints and ≧3 tender joints) despite prior or current treatment with disease-modifying antirheumatic drug (DMARD) therapy were randomized. […] One qualifying psoriatic skin lesion of at least 2 cm in diameter was required in PALACE 3. Previous treatment with a biologic, including TNF-blockers was allowed.\n(§2) Across the 3 studies, patients were randomly assigned to placebo (n=496), apremilast 20 mg (n=500), or apremilast 30 mg (n=497) given orally twice daily. Patients were allowed to receive stable doses of concomitant methotrexate (MTX) (≦25 mg/week), sulfasalazine (SSZ) (≦2 g/day), leflunomide (LEF) (≦20 mg/day), low dose oral corticosteroids (equivalent to ≦10 mg of prednisone a day), and/or nonsteroidal anti-inflammatory drugs (NSAIDs) during the trial. Treatment assignments were stratified based on small-molecule DMARD use at baseline. The patients who were therapeutic failures of >3 agents for PsA (small molecules or biologics), or >1 biologic TNF blocker were excluded.\n(§3) The primary endpoint was the percentage of patients achieving American College of Rheumatology (ACR) 20 response at Week 16. Placebo-controlled efficacy data were collected and analyzed through Week 24. Patients with each subtype of PsA were enrolled across the 3 studies, including symmetric polyarthritis (62.0%), asymmetric oligoarthritis (26.9%), distal interphalangeal (DIP) joint arthritis (6.2%), arthritis mutilans (2.7%), and predominant spondylitis (2.1%). The median duration of PsA disease was 5 years. Patients received concomitant therapy with at least one DMARD (65.2%), MTX (54.5%), SSZ (9.0%), LEF (7.4%), low dose oral corticosteroids (13.9%), and NSAIDs (70.7%). Prior treatment with small-molecule DMARDs only was reported in 76.4% of patients and prior treatment with biologic DMARDs was reported in 22.4% of patients."}, "[2]": {"tested_on": "adult patients with active PsA", "assay": "Phase III clinical study PALACE 3 in active psoriatic arthritis (PASI-75)", "assay_type": "in vivo, human", "details": "patients with psoriatic involvement of at least three percent BSA", "description": "as §1\nas §2, with “Treatment assignments were stratified based on small-molecule DMARD use at baseline. The patients who were therapeutic failures of >3 agents for PsA (small molecules or biologics), or >1 biologic TNF blocker were excluded.” left out\nThe primary endpoint was the percentage of patients achieving American College of Rheumatology (ACR) 20 response at Week 16. Placebo-controlled efficacy data were collected and analyzed through Week 24. […]\nPatients with psoriatic involvement of at least three percent body surface area (BSA) were evaluated for Psoriatic Area and Severity Index (PASI)-75 responses. […]"}, "[3]": {"tested_on": "adult patients with active PsA", "assay": "Phase III clinical studies PALACE 1-3, study not specified", "assay_type": "in vivo, human", "description": "as §1, §2, §3"}, "[4]": {"tested_on": "patients with psoriatic arthritis (PsA)", "assay": "Phase II randomized, double-blind, placebo controlled, multicenter clinical study in psoriatic arthritis", "details": "for Subjects reporting a serious AE (SAE): 12 week study period", "procedure": "A phase II, randomized, double-blind, placebo controlled, multicenter clinical study was performed in North America and Europe in patients with psoriatic arthritis (PsA). […] Mean duration of PsA was 7.8 years; mean tender joint count of 22, mean swollen joint count of 10 at baseline (Moll & Wright criteria). […] Stable doses of NSAIDs, corticosteroids (≦10 mg/day prednisone or equivalent), and methotrexate were allowed."}},
  "data": [
    {"smiles": "CCOc1cc([C@@H](CS(C)(=O)=O)N2C(=O)c3cccc(NC(C)=O)c3C2=O)ccc1OC", "note": "[apremilast, (+)-2-[1-(3-ethoxy-4-methoxyphenyl)-2-methylsulfonylethyl]-4-acetylaminoisoindoline-1,3-dione]", "values": [
      {"measurement": "Proportion of HAQ-DI responders (≧0.3 change from baseline) compared to placebo", "setting": "[1]; Week 16", "result": "greater proportion"},
      {"measurement": "Patients achieving remission, DAS28(CRP) less than 2.6", "setting": "[1]; Week 16, 30 mg BID with or without DMARDs", "result": 13.1, "unit": "%"},
      {"measurement": "CRP, % Change (percent improvement)", "setting": "[1]; Week 16, 30 mg BID ± DMARDs", "result": 12.40, "unit": "%"},
      {"measurement": "HAQ-DI score, % Change (percent improvement)", "setting": "[1]; Week 16, 30 mg BID ± DMARDs", "result": 20.00, "unit": "%"},
      {"measurement": "Physician's global assessment of disease activity, % Change (percent improvement)", "setting": "[1]; Week 16, 30 mg BID ± DMARDs", "result": 42.31, "unit": "%"},
      {"measurement": "Subject's assessment of pain, % Change (percent improvement)", "setting": "[1]; Week 16, 30 mg BID ± DMARDs", "result": 26.00, "unit": "%"},
      {"measurement": "Subject's global assessment of disease activity, % Change (percent improvement)", "setting": "[1]; Week 16, 30 mg BID ± DMARDs", "result": 20.29, "unit": "%"},
      {"measurement": "Number of swollen joints, % Change (percent improvement)", "setting": "[1]; Week 16, 30 mg BID ± DMARDs", "result": 50.00, "unit": "%"},
      {"measurement": "Number of tender joints, % Change (percent improvement)", "setting": "[1]; Week 16, 30 mg BID ± DMARDs", "result": 43.17, "unit": "%"},
      {"measurement": "ACR 20 response rate", "setting": "[1]; Week 16, apremilast alone (29/62 patients)", "result": 46.8, "unit": "%"},
      {"measurement": "ACR 20 response rate", "setting": "[1]; Week 16, biologic-naive patients, concomitant with DMARD (51/124 patients)", "result": 41.1, "unit": "%"},
      {"measurement": "ACR 20 response rate", "setting": "[1]; Week 16, concomitant with DMARD (35/106 patients)", "result": 33.0, "unit": "%"},
      {"measurement": "ACR 20 response rate", "setting": "[1]; Week 16, previously treated with small molecule and/or biologic DMARD (11/41 patients)", "result": 26.8, "unit": "%"},
      {"measurement": "Proportion of patients with ACR 20 response", "setting": "[1]; Week 16, ± DMARDs", "result": 38.1, "unit": "%"},
      {"measurement": "Proportion of patients with ACR 50 response", "setting": "[1]; Week 16, ± DMARDs", "result": 16.1, "unit": "%"},
      {"measurement": "Proportion of patients with ACR 70 response", "setting": "[1]; Week 16, ± DMARDs", "result": 4.2, "unit": "%"},
      {"measurement": "ACR 20 response rate", "setting": "[1]; Week 24, 30 mg BID for up to 24 weeks, independent of response at Week 16", "result": 43.5, "unit": "%"},
      {"measurement": "Patients achieving remission, DAS28(CRP) less than 2.6", "setting": "[1]; Week 24, 30 mg BID with or without DMARDs", "result": 19.0, "unit": "%"},
      {"measurement": "CRP, % Change (percent improvement)", "setting": "[1]; Week 24, 30 mg BID ± DMARDs", "result": 8.45, "unit": "%"},
      {"measurement": "HAQ-DI score, % Change (percent improvement)", "setting": "[1]; Week 24, 30 mg BID ± DMARDs", "result": 20.00, "unit": "%"},
      {"measurement": "Physician's global assessment of disease activity, % Change (percent improvement)", "setting": "[1]; Week 24, 30 mg BID ± DMARDs", "result": 35.90, "unit": "%"},
      {"measurement": "Subject's assessment of pain, % Change (percent improvement)", "setting": "[1]; Week 24, 30 mg BID ± DMARDs", "result": 27.67, "unit": "%"},
      {"measurement": "Subject's global assessment of disease activity, % Change (percent improvement)", "setting": "[1]; Week 24, 30 mg BID ± DMARDs", "result": 23.92, "unit": "%"},
      {"measurement": "Number of swollen joints, % Change (percent improvement)", "setting": "[1]; Week 24, 30 mg BID ± DMARDs", "result": 50.00, "unit": "%"},
      {"measurement": "Number of tender joints, % Change (percent improvement)", "setting": "[1]; Week 24, 30 mg BID ± DMARDs", "result": 44.83, "unit": "%"},
      {"measurement": "Proportion of patients with ACR 20 response", "setting": "[1]; Week 24, ± DMARDs", "result": 35.1, "unit": "%"},
      {"measurement": "Proportion of patients with ACR 50 response", "setting": "[1]; Week 24, ± DMARDs", "result": 19.0, "unit": "%"},
      {"measurement": "Proportion of patients with ACR 70 response", "setting": "[1]; Week 24, ± DMARDs", "result": 10.1, "unit": "%"},
      {"measurement": "Change in mean HAQ-DI score from baseline", "setting": "[1]; baseline to Week 16, p=0.0017 vs placebo", "result": "−0.244"},
      {"measurement": "Proportion of patients achieving PASI-75", "setting": "[2]; Week 16, 30 BID", "result": 22.2, "unit": "%"},
      {"measurement": "Proportion of patients achieving PASI-75", "setting": "[2]; Week 24, 30 BID", "result": 25.6, "unit": "%"},
      {"measurement": "Mental Component Summary score (MCS), mean change from baseline", "setting": "[3]; human, in vivo", "result": "No worsening"},
      {"measurement": "SF-36v2 physical functioning domain and physical component summary score, change from baseline compared to placebo", "setting": "[3]; human, in vivo", "result": "greater improvement"},
      {"measurement": "Dactylitis and enthesitis", "setting": "[3]; patients with pre-existing dactylitis or enthesitis", "result": "improvement"},
      {"measurement": "Discontinuations due to AEs", "setting": "[4]; 20 mg BID", "result": 9, "unit": "%"},
      {"measurement": "Discontinuations due to lack of efficacy", "setting": "[4]; 20 mg BID", "result": 7, "unit": "%"},
      {"measurement": "Subjects reporting a serious AE (SAE)", "setting": "[4]; 20 mg BID", "result": 4, "unit": "subjects"},
      {"measurement": "Primary endpoint, ACR20 at 12 weeks", "setting": "[4]; 20 mg BID", "result": "met"},
      {"measurement": "ACR20 at 24 weeks", "setting": "[4]; 20 mg BID, evaluable subjects, 24 weeks", "result": 40, "unit": "%"},
      {"measurement": "Discontinuations due to AEs", "setting": "[4]; 40 mg QD", "result": 6, "unit": "%"},
      {"measurement": "Discontinuations due to lack of efficacy", "setting": "[4]; 40 mg QD", "result": 0, "unit": "%"},
      {"measurement": "Subjects reporting a serious AE (SAE)", "setting": "[4]; 40 mg QD", "result": 0, "unit": "subjects"},
      {"measurement": "Primary endpoint, ACR20 at 12 weeks", "setting": "[4]; 40 mg QD", "result": "met"},
      {"measurement": "ACR20 at 24 weeks", "setting": "[4]; 40 mg QD, evaluable subjects, 24 weeks", "result": 39.1, "unit": "%"},
      {"measurement": "Subjects reporting an SAE in the extension", "setting": "[4]; active-drug extension, weeks 12-24", "result": 7, "unit": "subjects"},
      {"measurement": "ACR20 at 24 weeks", "setting": "[4]; placebo subjects switched to 20 mg BID in the extension", "result": 35, "unit": "%"},
      {"measurement": "ACR20 at 24 weeks", "setting": "[4]; placebo subjects switched to 40 mg QD in the extension", "result": 40, "unit": "%"},
      {"measurement": "Deaths", "setting": "[4]; whole study", "result": "no deaths"}
    ]}
  ]
}
